Results reported in US8846933B2, “N-link hydroxamic acid derivatives useful as antibacterial agents” (Pfizer Inc., priority 2009, dated 2014).

Columns and labels:
Assay type in all cases: cell-based
[1] = tested on: Escherichia coli EC-1: VOGEL, mouse virulent; test: MIC determination (CLSI), strain EC-1; conditions: Escherichia coli EC-1, VOGEL, mouse virulent; unit assumed
How it was run: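 The mouse-virulent VOGEL isolate of E. coli, EC-1, served as test organism. Minimum inhibitory concentration was measured by CLSI dilution methodology (M7-A7; M100-S18 standards).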

[2] = tested on: Pseudomonas aeruginosa UI-18: Wild-type (PA-7); test: MIC determination (CLSI), strain PA-7; conditions: Pseudomonas aeruginosa UI-18, wild-type; unit assumed
How it was run: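 MIC determined by broth dilution per CLSI M7-A7 guidelines with M100-S18 interpretive standards. Test organism: wild-type Pseudomonas aeruginosa UI-18, designated PA-7.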

[3] = tested on: Acinetobacter baumanii/haemolyticus: Multidrug-resistant clinical isolate (AB-3167); test: MIC determination (CLSI), strain AB-3167; conditions: unit assumed
Procedure: The in vitro antibacterial activity of compounds described in the Examples was evaluated by minimum inhibitory concentration (MIC) testing according to Clinical and Laboratory Standards Institute (CLSI, formerly NCCLS) guidelines. See: Clinical and Laboratory Standards Institute. Methods for Dilution Antimicrobial Susceptibility Tests for Bacteria that Grow Aerobically; Approved Standard-Seventh Edition. CLSI document M7-A7 [ISBN 1-56238-587-9]. Clinical and Laboratory Standards Institute, 940 West Valley Road, Suite 1400, Wayne, Pa. 19087-1898 USA, 2006; also Clinical and Laboratory Standards Institute. Performance Standards for Antimicrobial Susceptibility Testing; Eighteenth Informational Supplement. CLSI document M100-S18 [ISBN1-56238-653-0].Clinical and Laboratory Standards Institute.
The following bacterial strains were used in these MIC determinations:
2) Acinetobacter baumanii/haemolyticus: Multidrug-resistant clinical isolate labeled as AB-3167 in Tables 4 and 5;

Row | SMILES | EC-1 (MIC) [1] | PA-7 (MIC) [2] | AB-3167 (MIC) [3]
1 | CC1(O)CCC(Oc2ccc(-c3ccn(CC[C@](C)(C(=O)NO)S(C)(=O)=O)c(=O)c3)cc2)CC1 (stereo partly drawn) [Example 10-A, (2R)-N-hydroxy-4-[4-{4-[(4-hydroxy-4-methylcyclohexyl)oxy]phenyl}-2-oxopyridin-1(2H)-yl]-2-methyl-2-(methylsulfonyl)butanamide] | 0.25 µg/mL | 1 µg/mL | > 64 µg/mL
2 | C[C@@](CCn1ccc(-c2ccc(F)cc2)cc1=O)(C(=O)NO)S(C)(=O)=O [Example 41, (2R)-4-[4-(4-fluorophenyl)-2-oxopyridin-1(2H)-yl]-N-hydroxy-2-methyl-2-(methylsulfonyl)butanamide] | 1 µg/mL | 0.5 µg/mL | > 64 µg/mL
3 | Cc1ccc(-c2ccn(CC[C@](C)(C(=O)NO)S(C)(=O)=O)c(=O)c2)c(F)c1 [Example 13, (2R)-4-[4-(2-fluoro-4-methylphenyl)-2-oxopyridin-1(2H)-yl]-N-hydroxy-2-methyl-2-(methylsulfonyl)butanamide] | 0.5 µg/mL | 0.5 µg/mL | > 64 µg/mL
4 | CC(=O)c1ccc(-c2ccn(CCC(C)(C(=O)NO)S(C)(=O)=O)c(=O)c2)cc1 (stereo not drawn) [Example 68-V, 4-[4-(4-acetylphenyl)-2-oxopyridin-1(2H)-yl]-N-hydroxy-2-methyl-2-(methylsulfonyl)butanamide] | 4 µg/mL | 4 µg/mL | > 64 µg/mL
5 | C[C@@](CCn1ccc(-c2ccc(-c3ccon3)cc2)cc1=O)(C(=O)NO)S(C)(=O)=O [Example 68-F, (2R)-N-hydroxy-4-[4-(4-isoxazol-3-ylphenyl)-2-oxopyridin-1(2H)-yl]-2-methyl-2-(methylsulfonyl)butanamide] | 0.25 µg/mL | 0.5 µg/mL | > 64 µg/mL
6 | CC(O)c1ccc(-c2ccn(CCC(C)(C(=O)NO)S(C)(=O)=O)c(=O)c2)cc1 (stereo not drawn) [Example 68-Q, N-hydroxy-4-{4-[4-(1-hydroxyethyl)phenyl]-2-oxopyridin-1(2H)-yl}-2-methyl-2-(methylsulfonyl)butanamide] | 64 µg/mL | 16 µg/mL | > 64 µg/mL
7 | Cc1cnc(-c2ccc(-c3ccn(CC[C@](C)(C(=O)NO)S(C)(=O)=O)c(=O)c3)cc2)o1 [Example 38, (2R)-N-hydroxy-2-methyl-4-{4-[4-(5-methyl-1,3-oxazol-2-yl)phenyl]-2-oxopyridin-1(2H)-yl}-2-(methylsulfonyl)butanamide] | 0.06 µg/mL | 0.5 µg/mL | > 64 µg/mL
8 | CC(CCn1ccc(OCCCC2CCCCC2)cc1=O)(C(=O)NO)S(C)(=O)=O (stereo not drawn) [Example 66, 4-[4-(3-Cyclohexylpropoxy)-2-oxopyridin-1(2H)-yl]-N-hydroxy-2-methyl-2-(methylsulfonyl)butanamide] | 1 µg/mL | 8 µg/mL | 2 µg/mL
9 | COc1cnn(-c2ccc(-c3ccn(CC[C@](C)(C(=O)NO)S(C)(=O)=O)c(=O)c3)cc2)n1 [Example 58, (2R)-N-hydroxy-4-{4-[4-(4-methoxy-2H-1,2,3-triazol-2-yl)phenyl]-2-oxopyridin-1(2H)-yl}-2-methyl-2-(methylsulfonyl)butanamide] | 0.03 µg/mL | 0.5 µg/mL | > 64 µg/mL
10 | COc1ccc(-c2ccn(CC[C@](C)(C(=O)NO)S(C)(=O)=O)c(=O)c2)cc1 [Example 17, (2R)-N-hydroxy-4-[4-(4-methoxyphenyl)-2-oxopyridin-1(2H)-yl]-2-methyl-2-(methylsulfonyl)butanamide] | 0.5 µg/mL | 0.5 µg/mL | > 64 µg/mL
11 | C[C@@](CCn1ccc(-c2cccc(F)c2F)cc1=O)(C(=O)NO)S(C)(=O)=O [Example 14, (2R)-4-[4-(2,3-difluorophenyl)-2-oxopyridin-1(2H)-yl]-N-hydroxy-2-methyl-2-(methylsulfonyl)butanamide] | 0.5 µg/mL | 0.5 µg/mL | > 64 µg/mL
12 | CC(CCn1ccc(-c2ccc3c(c2)CCC(O)C3)cc1=O)(C(=O)NO)S(C)(=O)=O (stereo not drawn) [Example 68-O, N-hydroxy-4-[4-(6-hydroxy-5,6,7,8-tetrahydronaphthalen-2-yl)-2-oxopyridin-1(2H)-yl]-2-methyl-2-(methylsulfonyl)butanamide] | 16 µg/mL | 8 µg/mL | > 64 µg/mL
13 | CC(CCn1ccc(-c2ccc3cccnc3c2)cc1=O)(C(=O)NO)S(C)(=O)=O (stereo not drawn) [Example 36, N-hydroxy-2-methyl-2-(methylsulfonyl)-4-(2-oxo-4-quinolin-7-ylpyridin-1(2H)-yl)butanamide] | 4 µg/mL | 8 µg/mL | > 64 µg/mL
14 | C[C@@](CCn1ccc(-c2ccc(OCC3CC(CO)C3)cc2)cc1=O)(C(=O)NO)S(C)(=O)=O (stereo partly drawn) [Example 10-D, (2R)-N-hydroxy-4-[4-(4-{[3-(hydroxymethyl)cyclobutyl]methoxy}phenyl)-2-oxopyridin-1(2H)-yl]-2-methyl-2-(methylsulfonyl)butanamide] | 0.25 µg/mL | 1 µg/mL | > 64 µg/mL
15 | CC(C)(O)C1CC(Oc2ccc(-c3ccn(CC[C@](C)(C(=O)NO)S(C)(=O)=O)c(=O)c3)cc2)C1 (stereo partly drawn) [Example 10-H, (2R)-N-hydroxy-4-[4-(4-{[3-(1-hydroxy-1-methylethyl)cyclobutyl]oxy}phenyl)-2-oxopyridin-1(2H)-yl]-2-methyl-2-(methylsulfonyl)butanamide] | 1 µg/mL | 2 µg/mL | > 64 µg/mL
16 | COCCSc1ccc(-c2ccn(CC[C@](C)(C(=O)NO)S(C)(=O)=O)c(=O)c2)cc1 [Example 48, (2R)-N-hydroxy-4-[4-{4-[(2-methoxyethyl)thio]phenyl}-2-oxopyridin-1(2H)-yl]-2-methyl-2-(methylsulfonyl)butanamide] | 0.25 µg/mL | 1 µg/mL | > 64 µg/mL
17 | Cc1nc(-c2ccc(-c3ccn(CC[C@](C)(C(=O)NO)S(C)(=O)=O)c(=O)c3)cc2)co1 [Example 25, (2R)-N-hydroxy-2-methyl-4-{4-[4-(2-methyl-1,3-oxazol-4-yl)phenyl]-2-oxopyridin-1(2H)-yl}-2-(methylsulfonyl)butanamide] | 1 µg/mL | 2 µg/mL | > 64 µg/mL
18 | COc1ccc2cc(-c3ccn(CCC(C)(C(=O)NO)S(C)(=O)=O)c(=O)c3)ccc2c1 (racemic) [Example 34, (+/−)-N-hydroxy-4-[4-(6-methoxy-2-naphthyl)-2-oxopyridin-1(2H)-yl]-2-methyl-2-(methylsulfonyl)butanamide] | < 0.06 µg/mL | 1 µg/mL | 8 µg/mL
19 | C[C@@](CCn1ccc(-c2ccc(OC(F)(F)[C@H]3CC[C@H](O)CC3)cc2)cc1=O)(C(=O)NO)S(C)(=O)=O [Example 60, (2R)-4-[4-{4-[difluoro(trans-4-hydroxycyclohexyl)methoxy]phenyl}-2-oxopyridin-1(2H)-yl]-N-hydroxy-2-methyl-2-(methylsulfonyl)butanamide] | 0.125 µg/mL | 1 µg/mL | 32 µg/mL
20 | C[C@@](CCn1ccc(-c2ccccc2)cc1=O)(C(=O)NO)S(C)(=O)=O [Example 11, (2R)-N-Hydroxy-2-methyl-2-(methylsulfonyl)-4-(2-oxo-4-phenylpyridin-1(2H)-yl)butanamide] | 8 µg/mL | 1 µg/mL | 64 µg/mL
21 | Cc1cc(-c2ccn(CC[C@](C)(C(=O)NO)S(C)(=O)=O)c(=O)c2)ccc1-c1cc(CO)no1 [Example 63, N-Hydroxy-4-[4-{4-[3-(hydroxymethyl)isoxazol-5-yl]-3-methylphenyl}-2-oxopyridin-1(2H)-yl]-2-methyl-2-(methylsulfonyl)butanamide] | 2 µg/mL | 4 µg/mL | > 64 µg/mL
22 | C[C@@](CCn1ccc(-c2ccc(OC[C@H]3CC[C@@H](O)CC3)cc2)cc1=O)(C(=O)NO)S(C)(=O)=O [Example 8, (2R)-N-hydroxy-4-[4-{4-[(cis-4-hydroxycyclohexyl)methoxy]phenyl}-2-oxopyridin-1(2H)-yl]-2-methyl-2-(methylsulfonyl)butanamide] | 0.5 µg/mL | 1 µg/mL | > 64 µg/mL
23 | C[C@@](CCn1ccc(-c2ccc(Cl)cc2)cc1=O)(C(=O)NO)S(C)(=O)=O [Example 15, (2R)-4-[4-(4-chlorophenyl)-2-oxopyridin-1(2H)-yl]-N-hydroxy-2-methyl-2-(methylsulfonyl)butanamide] | 0.5 µg/mL | 0.5 µg/mL | > 64 µg/mL
24 | C[C@H](O)c1ccc2cc(-c3ccn(CC[C@](C)(C(=O)NO)S(C)(=O)=O)c(=O)c3)ccc2c1 [Example 68-N, (2R)-N-hydroxy-4-[4-{6-[(1S)-1-hydroxyethyl]-2-naphthyl}-2-oxopyridin-1(2H)-yl]-2-methyl-2-(methylsulfonyl)butanamide] | 0.5 µg/mL | 2 µg/mL | > 64 µg/mL
25 | C[C@@](CCn1ccc(-c2ccccc2F)cc1=O)(C(=O)NO)S(C)(=O)=O [Example 43, (2R)-4-[4-(2-fluorophenyl)-2-oxopyridin-1(2H)-yl]-N-hydroxy-2-methyl-2-(methylsulfonyl)butanamide] | 1 µg/mL | 0.5 µg/mL | > 64 µg/mL
